In one assay the target is HDAC-2 (Homo sapiens (Human), UniProt Q92769). As to the kind of experiment: biochemical. The class given is biochemical. The procedure:
(§1) Hydroxamic acid is a well know metal-chelating agent, especially for Zn atom. […] Many of these metalloenzymes are well known important disease target, such as HDAC and MMP. […] The following protocol is used to assay the compounds of the invention against the HDAC enzymes.
(§2) The enzyme stock solution is 4 μg/mL in buffer. The compounds are pre-incubated (2 μl in DMSO diluted to 13 μl in buffer for transfer to assay plate) with enzyme (20 μl of 4 μg/ml) for 10 minutes at room temperature (35 μl pre-incubation volume). The mixture is pre-incubated for 5 minutes at room temperature. The reaction is started by bringing the temperature to 37° C. and adding […] substrate. Total reaction volume is 50 μl. […] Such assays, carried out with a range of doses of test compounds, allow the determination of an approximate IC50 value.

Another assay addresses HDAC-6 (Homo sapiens (Human), UniProt Q9UBN7). As to the kind of experiment: Inhibition of histone deacetylase enzymatic activity (Fluor-de-Lys). The class given is biochemical. As for the experimental part: as §1, §2
The target of the next assay is HDAC-10 (Homo sapiens (Human), UniProt Q969S8). The description is as above. It counts as biochemical. The procedure: as §1, §2
A further assay concerns the target HDAC-8 (Homo sapiens (Human), UniProt Q9BY41). The assay is described as above. The class given is biochemical. The procedure:
as §1, §2

The target of a further assay is HDAC-3 (Homo sapiens (Human), UniProt O15379). The assay is described as above. It counts as biochemical. The procedure: as §1, §2
In another assay the target is HDAC-1 (Homo sapiens (Human), UniProt Q13547). Described as above. The class given is biochemical. The procedure:
as §1, §2

In the next assay the test system is RPMI8226. As to the kind of experiment: In vitro anti-proliferation assay (ATPlite luminescence). The class given is cell-based. Particulars: Homo sapiens, RPMI-8226; RPMI8226, 72 hours, 5% FBS; read-out: IC50 cell anti-proliferative assay RPMI8226. The procedure:
(§3) Cell antiproliferation was assayed by PerkinElmer ATPlite™ Luminescence Assay System. The cancer cell lines were plated at 10 k cells per well in Costar 96-well plates with different concentration of compounds for 72 hours with 5% FBS. After that, one lyophilized substrate solution vial was reconstituted by adding 5 mL of substrate buffer solution and was agitated gently until the solution is homogeneous. 50 μL of mammalian cell lysis solution was added to 100 μL of cell suspension per well of a microplate and the plate was shaken for five minutes in an orbital shaker at 700 rpm. This procedure will lyses the cells and stabilizes the ATP. Next, 50 μL substrate solution was added to the wells and microplate was shaken for five minutes in an orbital shaker at 700 rpm. Finally the luminescence was measured by a PerkinElmer TopCount® Microplate Scintillation Counter. Such assays, carried out with a range of doses of test compounds, allow the determination of an approximate IC50 value for the in vitro cell antiproliferation assay of cancer cell lines.

In another assay the test system is MM1R. Described as above. It counts as cell-based. Particulars: MM.1R, 72 hours, 5% FBS, read-out: IC50 cell anti-proliferative assay MM1R. As for the experimental part:
as §3

In the next assay the test system is MM1S. Described as above. The class given is cell-based. Particulars: Homo sapiens, MM1.S, 72 hours, 5% FBS, read-out: IC50 cell anti-proliferative assay MM1S. The procedure: as §3

HDAC-8, sequence (Q9BY41 whole entry, species assumed): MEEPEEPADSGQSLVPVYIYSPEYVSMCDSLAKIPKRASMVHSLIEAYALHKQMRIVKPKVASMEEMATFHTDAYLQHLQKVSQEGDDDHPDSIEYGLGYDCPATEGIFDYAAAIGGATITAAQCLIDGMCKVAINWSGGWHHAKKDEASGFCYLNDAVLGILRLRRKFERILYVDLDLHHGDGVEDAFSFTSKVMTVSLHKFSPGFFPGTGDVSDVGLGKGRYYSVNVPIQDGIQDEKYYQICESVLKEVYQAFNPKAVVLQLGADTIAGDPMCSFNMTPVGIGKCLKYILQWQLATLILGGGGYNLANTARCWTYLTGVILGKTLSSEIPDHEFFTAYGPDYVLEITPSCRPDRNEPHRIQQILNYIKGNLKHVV
HDAC-3, sequence (O15379 whole entry, looked up, species assumed): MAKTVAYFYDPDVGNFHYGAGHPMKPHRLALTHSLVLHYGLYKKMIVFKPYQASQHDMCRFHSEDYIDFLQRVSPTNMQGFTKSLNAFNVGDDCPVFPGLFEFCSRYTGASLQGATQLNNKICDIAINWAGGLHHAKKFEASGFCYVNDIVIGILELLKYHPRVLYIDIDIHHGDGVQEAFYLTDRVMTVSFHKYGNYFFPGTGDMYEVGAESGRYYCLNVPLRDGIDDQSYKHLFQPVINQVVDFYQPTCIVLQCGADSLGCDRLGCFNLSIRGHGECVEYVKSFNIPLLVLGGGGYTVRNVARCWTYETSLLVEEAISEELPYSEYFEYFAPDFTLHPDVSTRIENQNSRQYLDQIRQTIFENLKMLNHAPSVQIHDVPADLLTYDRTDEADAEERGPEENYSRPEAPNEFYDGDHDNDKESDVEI
HDAC-3, sequence (Q9Y618 whole entry partner, looked up, species assumed): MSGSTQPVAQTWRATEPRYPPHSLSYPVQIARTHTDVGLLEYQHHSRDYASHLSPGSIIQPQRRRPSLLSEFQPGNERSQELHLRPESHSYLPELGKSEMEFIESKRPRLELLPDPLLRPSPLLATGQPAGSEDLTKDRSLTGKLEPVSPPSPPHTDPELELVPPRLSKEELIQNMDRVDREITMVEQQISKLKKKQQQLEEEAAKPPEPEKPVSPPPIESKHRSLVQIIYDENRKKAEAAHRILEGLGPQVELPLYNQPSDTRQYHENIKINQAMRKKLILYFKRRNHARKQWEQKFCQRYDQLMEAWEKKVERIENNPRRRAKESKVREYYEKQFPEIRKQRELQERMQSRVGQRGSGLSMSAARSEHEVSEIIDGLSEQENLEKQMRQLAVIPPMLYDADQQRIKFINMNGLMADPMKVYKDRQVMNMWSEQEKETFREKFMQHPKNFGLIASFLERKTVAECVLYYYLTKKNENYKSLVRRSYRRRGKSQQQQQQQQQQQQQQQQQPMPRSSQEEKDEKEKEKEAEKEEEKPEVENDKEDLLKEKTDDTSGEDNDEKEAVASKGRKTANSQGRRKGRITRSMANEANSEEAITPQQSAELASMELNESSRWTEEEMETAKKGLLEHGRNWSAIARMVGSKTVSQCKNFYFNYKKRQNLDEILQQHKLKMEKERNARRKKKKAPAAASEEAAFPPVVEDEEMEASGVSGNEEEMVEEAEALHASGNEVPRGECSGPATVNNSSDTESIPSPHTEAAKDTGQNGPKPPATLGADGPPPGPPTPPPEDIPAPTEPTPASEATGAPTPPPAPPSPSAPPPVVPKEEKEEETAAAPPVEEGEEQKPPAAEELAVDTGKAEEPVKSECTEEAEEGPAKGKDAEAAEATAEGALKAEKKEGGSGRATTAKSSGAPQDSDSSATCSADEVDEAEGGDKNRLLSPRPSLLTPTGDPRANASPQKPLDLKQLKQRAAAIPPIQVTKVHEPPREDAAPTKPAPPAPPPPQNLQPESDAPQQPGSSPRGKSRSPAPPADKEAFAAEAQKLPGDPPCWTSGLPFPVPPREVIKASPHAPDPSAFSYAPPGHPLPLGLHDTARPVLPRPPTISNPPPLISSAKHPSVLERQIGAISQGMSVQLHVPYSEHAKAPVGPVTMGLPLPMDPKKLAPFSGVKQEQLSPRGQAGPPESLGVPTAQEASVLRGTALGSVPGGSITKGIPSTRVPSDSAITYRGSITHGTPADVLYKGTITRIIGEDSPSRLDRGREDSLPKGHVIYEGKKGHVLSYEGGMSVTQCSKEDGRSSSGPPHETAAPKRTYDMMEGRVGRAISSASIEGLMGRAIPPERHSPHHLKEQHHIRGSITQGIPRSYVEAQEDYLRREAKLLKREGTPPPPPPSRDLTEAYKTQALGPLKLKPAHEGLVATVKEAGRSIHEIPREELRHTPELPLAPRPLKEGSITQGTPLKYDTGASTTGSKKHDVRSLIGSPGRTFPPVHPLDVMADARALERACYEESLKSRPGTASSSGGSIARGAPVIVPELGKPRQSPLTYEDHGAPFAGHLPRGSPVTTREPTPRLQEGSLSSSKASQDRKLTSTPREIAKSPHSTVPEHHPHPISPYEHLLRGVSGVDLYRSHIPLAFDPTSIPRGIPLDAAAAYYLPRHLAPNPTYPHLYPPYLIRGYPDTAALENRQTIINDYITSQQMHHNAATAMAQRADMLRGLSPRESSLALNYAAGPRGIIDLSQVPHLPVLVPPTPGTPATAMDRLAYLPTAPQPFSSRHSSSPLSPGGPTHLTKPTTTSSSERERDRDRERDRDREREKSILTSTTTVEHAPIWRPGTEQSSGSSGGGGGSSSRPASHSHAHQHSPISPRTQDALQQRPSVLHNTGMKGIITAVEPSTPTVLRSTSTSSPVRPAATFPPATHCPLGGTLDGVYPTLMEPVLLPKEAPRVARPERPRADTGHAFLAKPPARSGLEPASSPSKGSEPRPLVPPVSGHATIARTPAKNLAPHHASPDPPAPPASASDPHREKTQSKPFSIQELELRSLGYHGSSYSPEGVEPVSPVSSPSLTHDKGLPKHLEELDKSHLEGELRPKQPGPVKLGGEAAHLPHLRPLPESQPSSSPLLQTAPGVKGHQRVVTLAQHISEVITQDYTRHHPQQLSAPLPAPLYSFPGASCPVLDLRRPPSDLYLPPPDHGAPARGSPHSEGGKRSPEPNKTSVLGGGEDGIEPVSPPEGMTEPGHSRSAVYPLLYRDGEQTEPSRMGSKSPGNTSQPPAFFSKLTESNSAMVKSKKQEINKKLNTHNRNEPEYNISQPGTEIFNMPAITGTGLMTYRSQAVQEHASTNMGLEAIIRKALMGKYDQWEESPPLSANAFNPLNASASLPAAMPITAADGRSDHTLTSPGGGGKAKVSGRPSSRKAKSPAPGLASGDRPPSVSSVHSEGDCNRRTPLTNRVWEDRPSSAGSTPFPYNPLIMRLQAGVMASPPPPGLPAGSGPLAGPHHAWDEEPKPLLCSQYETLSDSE
HDAC-1, sequence (Q13547 whole entry, species assumed): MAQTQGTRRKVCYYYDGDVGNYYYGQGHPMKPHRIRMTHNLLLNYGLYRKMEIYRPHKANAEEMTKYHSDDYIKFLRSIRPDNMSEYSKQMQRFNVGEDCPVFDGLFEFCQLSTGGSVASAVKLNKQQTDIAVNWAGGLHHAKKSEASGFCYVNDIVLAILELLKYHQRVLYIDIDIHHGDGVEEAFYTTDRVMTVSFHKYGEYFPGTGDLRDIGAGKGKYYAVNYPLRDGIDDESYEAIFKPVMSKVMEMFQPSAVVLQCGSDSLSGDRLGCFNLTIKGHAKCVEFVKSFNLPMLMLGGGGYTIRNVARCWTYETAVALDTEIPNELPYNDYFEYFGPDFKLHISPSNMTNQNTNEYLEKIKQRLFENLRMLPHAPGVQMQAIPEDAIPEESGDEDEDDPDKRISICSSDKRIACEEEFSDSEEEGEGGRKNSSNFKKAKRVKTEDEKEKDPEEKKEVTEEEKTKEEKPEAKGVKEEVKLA
HDAC-2, sequence (Q92769 whole entry, species assumed): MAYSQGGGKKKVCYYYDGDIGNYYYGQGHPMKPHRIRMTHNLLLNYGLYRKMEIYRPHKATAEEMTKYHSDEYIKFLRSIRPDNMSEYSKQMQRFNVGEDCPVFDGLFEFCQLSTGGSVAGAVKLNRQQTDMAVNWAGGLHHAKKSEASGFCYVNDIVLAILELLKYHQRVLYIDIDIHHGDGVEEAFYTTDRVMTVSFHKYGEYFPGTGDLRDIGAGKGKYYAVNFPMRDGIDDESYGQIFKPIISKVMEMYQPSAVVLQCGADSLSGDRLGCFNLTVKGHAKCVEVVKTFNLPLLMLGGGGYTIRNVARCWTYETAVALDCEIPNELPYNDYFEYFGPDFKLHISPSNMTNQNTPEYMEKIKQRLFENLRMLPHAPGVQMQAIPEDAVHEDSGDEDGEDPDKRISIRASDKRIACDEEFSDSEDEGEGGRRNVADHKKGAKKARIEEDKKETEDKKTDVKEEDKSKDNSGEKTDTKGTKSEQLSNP
HDAC-10, sequence (Q969S8 whole entry, species assumed): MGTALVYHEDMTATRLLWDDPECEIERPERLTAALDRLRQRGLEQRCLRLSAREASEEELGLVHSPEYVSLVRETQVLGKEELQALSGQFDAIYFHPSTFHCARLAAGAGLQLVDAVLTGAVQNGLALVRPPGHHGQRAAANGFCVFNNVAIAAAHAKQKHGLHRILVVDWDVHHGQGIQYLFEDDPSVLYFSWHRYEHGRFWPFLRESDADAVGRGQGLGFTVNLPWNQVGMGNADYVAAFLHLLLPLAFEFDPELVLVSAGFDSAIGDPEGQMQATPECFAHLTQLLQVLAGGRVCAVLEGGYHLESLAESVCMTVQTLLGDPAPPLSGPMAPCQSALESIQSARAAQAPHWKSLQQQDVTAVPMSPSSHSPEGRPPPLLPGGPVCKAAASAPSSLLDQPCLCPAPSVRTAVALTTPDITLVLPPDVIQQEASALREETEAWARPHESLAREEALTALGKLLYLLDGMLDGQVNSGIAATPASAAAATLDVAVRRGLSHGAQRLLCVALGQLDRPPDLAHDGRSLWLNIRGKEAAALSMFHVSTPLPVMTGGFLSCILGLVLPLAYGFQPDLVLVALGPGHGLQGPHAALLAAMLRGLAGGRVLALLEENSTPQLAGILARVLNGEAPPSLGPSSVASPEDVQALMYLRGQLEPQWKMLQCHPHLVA

With `Cn1c(CCCCCCC(=O)NO)nc2cc(N(CCCl)CCCl)ccc21` [CY190602], the half-maximal inhibitory concentration (IC50) (usually the concentration that inhibits the measured activity by half) was found to be 9 nM against HDAC-2; 6 nM against HDAC-6; 72 nM against HDAC-10; 107 nM on HDAC-8; 25 nM at HDAC-3; 17 nM against HDAC-1. Also, the figures for the IC50 with RPMI8226, in the assay on MM1R and with MM1S were 4160 nM, 2660 nM and 1600 nM, respectively.

For `Cn1c(CCCC(=O)O)nc2cc(N(CCCl)CCCl)ccc21` [Bendamustine], the “HDAC IC50, HDAC-2 (result in words)” value at HDAC-2 is given as “No activity”. Besides, the “HDAC IC50, HDAC-6 (result in words)” value at HDAC-6 (HDAC-6, Bendamustine, unit not given) is “No activity”. For the same molecule, at HDAC-10 (HDAC-10, Bendamustine, unit not given), the “HDAC IC50, HDAC-10 (result in words)” value is listed as “No activity”. In addition, the “HDAC IC50, HDAC-8 (result in words)” value on HDAC-8 (HDAC-8, Bendamustine, unit not given) is “No activity”. Further, on HDAC-3 (Bendamustine, unit not given), the “HDAC IC50, HDAC-3 (result in words)” value is reported as “No activity”. For the same molecule, the “HDAC IC50, HDAC-1 (result in words)” value at HDAC-1 (Bendamustine, unit not given) was “No activity”. The figures for the IC50 in the assay with RPMI8226, in the assay with MM1R and with MM1S were 400000 nM, 100000 nM and 119000 nM, respectively.

Values taken from US9096627B2, “Hydroxamic acid derivatives” (Purdue Pharmaceutical Products L.P., priority 2009, dated 2015).
